From patent US20060069132A1, “Azolecarboxamide herbicides” (priority 2004, published 2006)

How the values were obtained:
[1] = tested on: large crabgrass; assay: Test B pre-/postemergence herbicide test; format: in vivo, Digitaria sanguinalis
Source text: (§1) Seeds selected from barnyardgrass (Echinochloa crus-galli (L.) Beauv.), Surinam grass (Urochloa decumbens (Staph) R. D. Webster, previously named Brachiaria decumbens Stapf), cocklebur (Xanthium strumarium L.), corn (Zea mays L.), large crabgrass (Digitaria sanguinalis (L.) Scop.), giant foxtail (Setaria faberi Herim.), lambsquarters (Chenopodium album L.), morningglory (Ipomoea coccinea L.), pigweed (Amaranthus retroflexus L.), rice (Oryza sativa L.) and velvetleaf (Abutilon theophrasti Medik.) were planted and treated preemergence with test chemicals formulated in a non-phytotoxic solvent mixture which included a surfactant.
(§2) At the same time, plants selected from these crop and weed species and also blackgrass (Alopecurus myosuroides Huds.), wheat (Triticum aestivum L.) and wild oat (Avena fatua L.) were treated with postemergence applications of test chemicals formulated in the same manner. Plants ranged in height from 2 to 18 cm (1- to 4-leaf stage) for postemergence treatments. Plant species in the flooded paddy test consisted of rice (Oryza sativa L.), small flower umbrella sedge (Cyperus difformis L.), ducksalad (Heteranthera limosa (Sw.) Willd.) and barnyardgrass (Echinochloa crus-galli (L.) Beauv.) grown to the 2-leaf stage for testing. Treated plants and controls were maintained in a greenhouse for 13 to 15 days, after which time all species were compared to controls and visually evaluated. Plant response ratings, summarized in Table B, are based on a scale of 0 to 100 where 0 is no effect and 100 is complete control. A dash (-) response means no test result.

[2] = tested on: velvetleaf; assay: Test B pre-/postemergence herbicide test; format: in vivo, Abutilon theophrasti
Source text: as §1, §2

[3] = tested on: blackgrass; assay: Test B postemergence herbicide test; format: in vivo, Alopecurus myosuroides
Method: as §2

[4] = tested on: corn; assay: Test B pre-/postemergence herbicide test; format: in vivo, Zea mays
Source text: as §1, §2

[5] = tested on: barnyardgrass; assay: Test B pre-/postemergence herbicide test; format: in vivo, Echinochloa crus-galli
Source text: as §1, §2

[6] = tested on: cocklebur; assay: Test B pre-/postemergence herbicide test; format: in vivo, Xanthium strumarium
Source text: as §1, §2

[7] = tested on: ducksalad; assay: Test B flooded paddy test; format: in vivo, Heteranthera limosa; conditions: 1000 g ai/ha, scale 0 to 100 (0 no effect, 100 complete control)
Method: as §2

[8] = tested on: Surinam grass; assay: Test B pre-/postemergence herbicide test; format: in vivo, Urochloa decumbens
Source text: as §1, §2

[9] = tested on: morningglory; assay: Test B pre-/postemergence herbicide test; format: in vivo, Ipomoea coccinea
Source text: as §1, §2

[10] = tested on: wild oat; assay: Test B postemergence herbicide test; format: in vivo, Avena fatua
Method: as §2

[11] = tested on: lambsquarters; assay: Test B pre-/postemergence herbicide test; format: in vivo, Chenopodium album
Source text: as §1, §2

[12] = tested on: giant foxtail; assay: Test B pre-/postemergence herbicide test; format: in vivo, Setaria faberi
Source text: as §1, §2

[13] = tested on: rice; assay: Test B flooded paddy test; format: in vivo, Oryza sativa; conditions: 1000 g ai/ha, scale 0 to 100 (0 no effect, 100 complete control)
Method: as §2

[14] = tested on: pigweed; assay: Test B pre-/postemergence herbicide test; format: in vivo, Amaranthus retroflexus
Source text: as §1, §2

[15] = tested on: wheat; assay: Test B postemergence herbicide test; format: in vivo, Triticum aestivum; design: key to Wheat plant response rating: 0 = no effect, 100 = complete control
Method: as §2

[16] = tested on: small flower umbrella sedge; assay: Test B flooded paddy test; format: in vivo, Cyperus difformis; conditions: 1000 g ai/ha, scale 0 to 100 (0 no effect, 100 complete control)
Method: as §2

[17] = tested on: barnyardgrass; assay: Test B flooded paddy test; format: in vivo, Echinochloa crus-galli; conditions: 1000 g ai/ha, scale 0 to 100 (0 no effect, 100 complete control)
Method: as §2

[18] = 500 g ai/ha, visual rating 0-100, 0 no effect, 100 complete control, preemergence
[19] = postemergence, 500 g ai/ha, visual rating, scale 0 (no effect) to 100 (complete control)
[20] = postemergence, 62 g ai/ha, scale 0 to 100
[21] = Postemergence, 500 g ai/ha, visual rating after 13 to 15 days, scale 0 (no effect) to 100 (complete control)
[22] = postemergence, 125 g ai/ha, visual rating, scale 0 (no effect) to 100 (complete control)
[23] = preemergence, 125 g ai/ha, 0 to 100 scale, 0 is no effect, 100 is complete control
[24] = 125 g ai/ha, 0 is no effect, 100 is complete control, preemergence
[25] = Postemergence, 500 g ai/ha, scale 0 (no effect) to 100 (complete control)
[26] = postemergence, 125 g ai/ha, scale 0 to 100

C=CCn1nc(C(C)(C)C)cc1C(=O)Nc1cccc(C(C)=O)c1 [Compound 129]
Plant response rating, Crabgrass, Large [1, 18]: 90
Crabgrass, Large plant response rating [1, 19]: 10
Crabgrass, Large plant response rating [1, 20]: 0
Plant response rating, Velvetleaf [2, 18]: 10
Velvetleaf plant response rating [2, 19]: 20
Velvetleaf plant response rating [2, 20]: 0
Blackgrass plant response rating [3, 19]: 0
Blackgrass plant response rating [3, 20]: 0
Plant response rating, Corn [4, 18]: 0
Plant response rating, Barnyardgrass [5, 18]: 60
Barnyardgrass plant response rating [5, 19]: 0
Barnyardgrass plant response rating [5, 20]: 0
Plant response rating, Cocklebur [6, 18]: 20
Cocklebur plant response rating [6, 19]: 60
Cocklebur plant response rating [6, 20]: 60
Ducksalad plant response rating ([7]; visual rating, 13 to 15 days): 70
Plant response rating, Surinam Grass [8, 18]: 10
Surinam Grass plant response rating [8, 19]: 20
Surinam Grass plant response rating [8, 20]: 0
Plant response rating, Morningglory [9, 18]: 0
Oat, Wild plant response rating [10, 19]: 0
Oat, Wild plant response rating [10, 20]: 0
Plant response rating, Lambsquarters [11, 18]: 20
Lambsquarters plant response rating [11, 19]: 10
Lambsquarters plant response rating [11, 20]: 0
Plant response rating, Foxtail, Giant [12, 18]: 20
Foxtail, Giant plant response rating [12, 19]: 10
Foxtail, Giant plant response rating [12, 20]: 10
Rice plant response rating ([13]; visual rating, 13 to 15 days): 10
Plant response rating, Pigweed [14, 18]: 30
Pigweed plant response rating [14, 19]: 10
Pigweed plant response rating [14, 20]: 0
Wheat plant response rating [15, 19]: 0
Wheat plant response rating [15, 20]: 0
Sedge, Umbrella plant response rating ([16]; visual rating, 13 to 15 days): 80
Barnyardgrass plant response rating ([17]; visual rating, 13 to 15 days): 30

COc1ccc(C(C)=NO)cc1NC(=O)c1cc(C(C)(C)C)nn1C [Compound 104]
Plant response rating, Crabgrass, Large [1, 18]: 90
Plant response rating, Crabgrass, Large [1, 21]: 0
Crabgrass, Large plant response rating [1, 22]: 0
Plant response rating, Crabgrass, Large [1, 23]: 80
Plant response rating, Velvetleaf [2, 18]: 0
Plant response rating, Velvetleaf [2, 21]: 0
Velvetleaf plant response rating [2, 22]: 0
Plant response rating, Velvetleaf [2, 23]: 0
Plant response rating, Blackgrass [3, 21]: 0
Blackgrass plant response rating [3, 22]: 0
Plant response rating, Corn [4, 18]: 0
Plant response rating, Corn [4, 21]: 0
Corn plant response rating [4, 22]: 0
Plant response rating, Corn [4, 23]: 0
Plant response rating, Barnyardgrass [5, 18]: 80
Plant response rating, Barnyardgrass [5, 21]: 0
Barnyardgrass plant response rating [5, 22]: 0
Plant response rating, Barnyardgrass [5, 23]: 0
Plant response rating, Cocklebur [6, 18]: 0
Plant response rating, Cocklebur [6, 21]: 0
Cocklebur plant response rating [6, 22]: 0
Plant response rating, Cocklebur [6, 23]: 0
Ducksalad plant response rating ([7]; visual rating, 13 to 15 days): 60
Plant response rating, Surinam Grass [8, 18]: 20
Plant response rating, Surinam Grass [8, 21]: 10
Surinam Grass plant response rating [8, 22]: 0
Plant response rating, Surinam Grass [8, 23]: 0
Plant response rating, Morningglory [9, 18]: 20
Plant response rating, Morningglory [9, 21]: 0
Morningglory plant response rating [9, 22]: 0
Plant response rating, Morningglory [9, 23]: 0
Plant response rating, Oat, Wild [10, 21]: 0
Oat, Wild plant response rating [10, 22]: 0
Plant response rating, Lambsquarters [11, 18]: 80
Plant response rating, Lambsquarters [11, 21]: 20
Lambsquarters plant response rating [11, 22]: 0
Plant response rating, Lambsquarters [11, 23]: 60
Plant response rating, Foxtail, Giant [12, 18]: 20
Plant response rating, Foxtail, Giant [12, 21]: 0
Foxtail, Giant plant response rating [12, 22]: 0
Plant response rating, Foxtail, Giant [12, 23]: 0
Rice plant response rating ([13]; visual rating, 13 to 15 days): 0
Plant response rating, Pigweed [14, 18]: 70
Plant response rating, Pigweed [14, 21]: 10
Pigweed plant response rating [14, 22]: 10
Plant response rating, Pigweed [14, 23]: 60
Plant response rating, Wheat [15, 21]: 0
Wheat plant response rating [15, 22]: 0
Sedge, Umbrella plant response rating ([16]; visual rating, 13 to 15 days): 70
Barnyardgrass plant response rating ([17]; visual rating, 13 to 15 days): 0

Cc1nn(C(C)(C)C)nc1C(=O)Nc1cncc(C(=O)N(C)C)c1 [Compound 426]
Plant response rating (0 to 100 scale), Crabgrass, Large [1, 24]: 70
Crabgrass, Large plant response rating [1, 25]: 20
Crabgrass, Large plant response rating [1, 26]: 10
Plant response rating (0 to 100 scale), Velvetleaf [2, 24]: 10
Velvetleaf plant response rating [2, 25]: 40
Velvetleaf plant response rating [2, 26]: 30
Blackgrass plant response rating [3, 25]: 0
Blackgrass plant response rating [3, 26]: 0
Plant response rating (0 to 100 scale), Corn [4, 24]: 0
Corn plant response rating [4, 25]: 10
Corn plant response rating [4, 26]: 10
Plant response rating (0 to 100 scale), Barnyardgrass [5, 24]: 10
Barnyardgrass plant response rating ([5]; Postemergence, 125 g ai/ha, scale 0 (no effect) to 100 (complete control)): 0
Barnyardgrass plant response rating [5, 25]: 20
Plant response rating (0 to 100 scale), Cocklebur [6, 24]: 0
Cocklebur plant response rating [6, 25]: 20
Cocklebur plant response rating [6, 26]: 10
Ducksalad plant response rating [7]: 70
Plant response rating (0 to 100 scale), Surinam Grass [8, 24]: 10
Surinam Grass plant response rating [8, 25]: 20
Surinam Grass plant response rating [8, 26]: 10
Plant response rating (0 to 100 scale), Morningglory [9, 24]: 0
Morningglory plant response rating [9, 25]: 50
Morningglory plant response rating [9, 26]: 20
Oat, Wild plant response rating [10, 25]: 0
Oat, Wild plant response rating [10, 26]: 0
Plant response rating (0 to 100 scale), Lambsquarters [11, 24]: 40
Lambsquarters plant response rating [11, 25]: 50
Lambsquarters plant response rating [11, 26]: 20
Plant response rating (0 to 100 scale), Foxtail, Giant [12, 24]: 0
Foxtail, Giant plant response rating [12, 25]: 30
Foxtail, Giant plant response rating [12, 26]: 20
Rice plant response rating [13]: 0
Plant response rating (0 to 100 scale), Pigweed [14, 24]: 50
Pigweed plant response rating [14, 25]: 50
Pigweed plant response rating [14, 26]: 30
Wheat plant response rating ([15]; 500 g ai/ha, scale 0 to 100, 0 no effect, 100 complete control, preemergence): 10
Wheat plant response rating [15, 25]: 0
Wheat plant response rating [15, 26]: 0
Sedge, Umbrella plant response rating [16]: 70
Barnyardgrass plant response rating [17]: 0
